What was measured:
[1] = biological target: T1, Steroid 17-alpha-hydroxylase/17,20 lyase (Homo sapiens, UniProt P05093)
T1 sequence (P05093 whole entry): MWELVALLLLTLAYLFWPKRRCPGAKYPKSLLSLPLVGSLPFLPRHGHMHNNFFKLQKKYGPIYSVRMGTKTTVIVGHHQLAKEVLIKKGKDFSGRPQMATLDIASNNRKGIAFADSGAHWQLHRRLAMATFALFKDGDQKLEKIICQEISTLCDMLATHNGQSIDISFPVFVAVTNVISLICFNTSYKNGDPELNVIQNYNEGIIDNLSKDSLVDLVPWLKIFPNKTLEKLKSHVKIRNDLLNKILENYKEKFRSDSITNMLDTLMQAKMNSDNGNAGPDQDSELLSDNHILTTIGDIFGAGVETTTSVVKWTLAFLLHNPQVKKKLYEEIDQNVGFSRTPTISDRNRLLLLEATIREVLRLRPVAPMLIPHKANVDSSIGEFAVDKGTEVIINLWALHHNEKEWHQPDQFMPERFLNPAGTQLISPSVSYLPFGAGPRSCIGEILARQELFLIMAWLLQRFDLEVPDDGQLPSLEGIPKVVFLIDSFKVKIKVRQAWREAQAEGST

[2] = biological target: T1, Steroid 17-alpha-hydroxylase/17,20 lyase; type: microsomes, Testis, Microsomes
in vitro [3] = settings: rat, in vivo
Mus musculus [4] = species on record: Mus musculus; type: functional
Mus musculus [5] = species on record: Mus musculus; type: functional; remark: listed apart in the source
Rattus norvegicus [6] = species on record: Rattus norvegicus; type: functional
in vitro [7] = settings: rat, in vivo; remark: listed apart in the source
Homo sapiens = species on record: Homo sapiens; type: functional, Blood
Mus musculus [8] = species on record: Mus musculus; type: functional, Blood
Rattus norvegicus [9] = species on record: Rattus norvegicus; type: functional, Blood
in vitro [10] = settings: rat, in vivo; remark: listed apart in the source

C[C@@H](NC(=O)C12CC3CC(CC(C3)C1)C2)c1ccncc1
IC50 [1]: 1900 nM | IC50 [2]: 430 nM

C[C@@H](OC(=O)C12CC3CC(CC(C3)C1)C2)c1ccncc1
half-life (in vitro [3]): 30 s

CC(C)(OC(=O)C12CC3CC(CC(C3)C1)C2)c1ccncc1
Substrate metabolized at 1hr (Mus musculus [4]): 2% | Substrate metabolized at 1hr (Mus musculus [5]): 0% | Substrate metabolized at 1hr (Rattus norvegicus [6]): 0% | half-life at 1 h (in vitro [7]): > 1 h

C[C@H](NC(=O)C12CC3CC(CC(C3)C1)C2)c1ccncc1
IC50 [1]: 820 nM | IC50 [2]: 210 nM

C[C@H](OC(=O)C12CC3CC(CC(C3)C1)C2)c1ccncc1
half-life (in vitro [3]): 30 s

O=C(OCc1ccncc1)C12CC3CC(CC(C3)C1)C2
Substrate metabolized at 1hr (Homo sapiens): 45% | Substrate metabolized at 1hr (Mus musculus [8]): 100% | Substrate metabolized at 1hr (Rattus norvegicus [9]): 100% | half-life at 1 min (in vitro [10]): < 60 s
